In patent publication US11957687B2 (REGENERON PHARMACEUTICALS, INC., priority 2019, dated 2024):

How the values were obtained:
HSD17B2 = HSD17B2 (Homo sapiens (Human), UniProt P37059); assay: HSD17B2 enzymatic blocking assay; assay type: biochemical; conditions: 1.8 μM Estradiol, 650 μM NAD; read-out: Inhibition of HSD17B2 IC50
In short: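 Mammalian-expressed enzyme at 2 ng/μL in 50 mM Tris-HCl pH 7.5 with detergents/BSA, preincubated 15 min at 20° C. with compound (10-point titration). Reaction with 1.8 μM estradiol and 650 μM NAD ran 45 min at 20° C.; NADH measured by NADH-Glo luminescence and IC50 derived.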

HSD17B13 = HSD17B13 (Homo sapiens (Human), UniProt Q7Z5P4); assay: HSD17B13 enzymatic inhibition assay (150 nM or 50 nM HSD17B13); assay type: biochemical; conditions: 50 nM HSD17B13; read-out: Inhibition of 50 nM of HSD17B13 IC50
HSD17B1 = HSD17B1 (Homo sapiens (Human), UniProt P14061); assay: HSD17B1 enzymatic blocking assay; assay type: biochemical; conditions: 25 μM Estradiol, 500 μM NAD; read-out: Inhibition of HSD17B1 IC50
In short: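 Activity followed as NADH formed on estradiol oxidation, read by NADH-Glo luminescence after 1 h detection in the dark at room temperature. Compounds preincubated with enzyme 30 min at room temperature; 0.5% DMSO and no-substrate controls. IC50 fitted from luminescence.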

HSD17B10 = HSD17B10 (Homo sapiens (Human), UniProt Q99714); assay: HSD17B10 enzymatic blocking assay; assay type: biochemical; conditions: 25 μM Estradiol, 500 μM NAD; read-out: Inhibition of HSD17B10 IC50
Experimental: To screen compounds of the disclosure for their ability to block HSD17B10 function, an enzymatic blocking assay was performed. For the assay, HSD17B10 activity was measured by detecting NADH formation from oxidation of Estradiol using a NADH Glo luminescence assay (Promega, #Cat. No. G9062). Compounds of the disclosure were evaluated in a dose titration assay where the compounds were titrated at 10-point dose curve using an Echo-555 liquid handling dispenser. HSD17B10 (Seq. ID NO: 5, expressed in mammalian cells) was added at a final concentration of 31.25 ng/well in a buffer containing 0.2M Tris-HCl, pH 7.5, into a low volume white 384-well assay plate. Compounds were incubated with the enzyme for 30 minutes at room temperature. The assay reaction was then initiated by addition of 25 μM Estradiol substrate (Sigma, catalog #E2758-250MG, CAS: 50-28-2) and 500 μM NAD co-factor, and the reaction mixture was incubated for 3 hours at room temperature. DMSO at a concentration of 0.5% was used as a negative control and a ‘no substrate’ control was used a positive control in the assay. Detection reagent was then added as per manufacturer's instructions, and the plate was subsequently incubated in the dark for 1 hour at room temperature, NADH generated was detected in the luminescence mode on the Envision Perkin Elmer plate reader. The IC50 values were determined using Dotmatics analysis software.

HSD17B4 = HSD17B4 (Homo sapiens (Human), UniProt P51659); assay: HSD17B4 enzymatic blocking assay; assay type: biochemical; conditions: 23.46 μM Estradiol, 1500 μM NAD; read-out: Inhibition of HSD17B4 IC50
Experimental: To screen compounds of the disclosure for their ability to block HSD17B4 function, an enzymatic blocking assay was performed. For the assay, HSD17B4 activity was measured by detecting NADH formation from oxidation of Estradiol using a NADH Glo luminescence assay (Promega, #Cat. No. G9062). Compounds of the disclosure were evaluated in a dose titration assay where the compounds were titrated at 10-point dose curve using an Echo-555 liquid handling dispenser. HSD17B4 (SEQ ID NO: 4, expressed in mammalian cells) was added at a final concentration of 2.5 ng/μL in a buffer containing 50 mM Tris-HCl, pH 7.5, Pluronic F-127 0.05%, Tween20 0.01%, BSA 0.01%, into a low volume white 384-well assay plate. Compounds were incubated with the enzyme for 15 min at 20° C. The assay reaction was then initiated by addition of 23.46 μM Estradiol substrate (Sigma, catalog #E2758-250MG, CAS: 50-28-2) and 1500 μM NAD co-factor, and the reaction mixture was incubated for 45 min at 20° C. DMSO at a concentration of 0.5% was used as a negative control and a ‘no substrate’ control was used a positive control in the assay. Detection reagent was then added as per manufacturer's instructions, and the plate was subsequently incubated in the dark for 1 hour at room temperature, NADH generated was detected in the luminescence mode on the Envision Perkin Elmer plate reader. The IC50 values were determined using Dotmatics analysis software.

[1] = Microsome stability assay, human liver microsomes; assay type: in vitro ADME; conditions: 1 μM compound, 0.5 mg/mL microsomal protein; for microsomal CLint at 1 μM / half-life at 1 μM / microsomal CLint at 1 h, 1 µM / half-life at 1 h, 1 µM: human, human liver microsomes, pooled, NADPH, 37° C.; for microsomal CLint at 1 μM / microsomal CLint at 1 h, 1 µM: read-out: Microsome Stability Human liver microsomes Cl; for half-life at 1 μM / half-life at 1 h, 1 µM: read-out: Microsome Stability Human liver microsomes T½
In short: (§1)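 Compound at 1 μM incubated at 37° C with pooled human or mouse liver microsomes (0.5 mg/mL protein) plus NADPH regenerating system, sampled at 0–60 min; a 60-min no-NADPH incubation also included. Single replicate; LC/MS/MS disappearance from analyte/internal standard peak area ratios, without standard curve.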

[2] = Microsome stability assay, mouse liver microsomes; assay type: in vitro ADME; conditions: 1 μM compound, 0.5 mg/mL microsomal protein
In short: as §1

[3] = mouse, mouse liver microsomes, pooled, NADPH, 37° C., read-out: Microsome Stability Mouse liver microsomes Cl
[4] = mouse, mouse liver microsomes, pooled, NADPH, 37° C., read-out: Microsome Stability Mouse liver microsomes T½

Chain of HSD17B13 (Q7Z5P4 other isoform, or with tags, fused parts or gaps): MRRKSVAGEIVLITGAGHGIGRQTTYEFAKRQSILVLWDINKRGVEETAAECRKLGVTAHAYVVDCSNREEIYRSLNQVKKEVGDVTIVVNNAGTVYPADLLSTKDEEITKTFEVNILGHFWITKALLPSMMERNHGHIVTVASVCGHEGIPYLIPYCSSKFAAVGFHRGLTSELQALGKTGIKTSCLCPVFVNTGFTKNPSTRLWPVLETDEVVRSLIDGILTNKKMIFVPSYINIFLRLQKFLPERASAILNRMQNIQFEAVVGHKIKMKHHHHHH
Chain of HSD17B2 (P37059 other isoform, or with tags, fused parts or gaps): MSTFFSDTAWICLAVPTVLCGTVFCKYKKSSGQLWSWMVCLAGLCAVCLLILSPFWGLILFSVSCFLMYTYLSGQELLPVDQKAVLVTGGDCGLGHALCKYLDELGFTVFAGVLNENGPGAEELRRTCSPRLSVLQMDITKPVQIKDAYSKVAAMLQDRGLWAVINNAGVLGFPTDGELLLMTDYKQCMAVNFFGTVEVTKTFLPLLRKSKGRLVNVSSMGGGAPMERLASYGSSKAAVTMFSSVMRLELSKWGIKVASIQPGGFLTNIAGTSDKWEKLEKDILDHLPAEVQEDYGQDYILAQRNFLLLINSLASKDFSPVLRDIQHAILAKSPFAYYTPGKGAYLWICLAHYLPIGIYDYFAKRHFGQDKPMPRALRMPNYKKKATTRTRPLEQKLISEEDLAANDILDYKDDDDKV
Chain of HSD17B1 (P14061 other isoform, or with tags, fused parts or gaps): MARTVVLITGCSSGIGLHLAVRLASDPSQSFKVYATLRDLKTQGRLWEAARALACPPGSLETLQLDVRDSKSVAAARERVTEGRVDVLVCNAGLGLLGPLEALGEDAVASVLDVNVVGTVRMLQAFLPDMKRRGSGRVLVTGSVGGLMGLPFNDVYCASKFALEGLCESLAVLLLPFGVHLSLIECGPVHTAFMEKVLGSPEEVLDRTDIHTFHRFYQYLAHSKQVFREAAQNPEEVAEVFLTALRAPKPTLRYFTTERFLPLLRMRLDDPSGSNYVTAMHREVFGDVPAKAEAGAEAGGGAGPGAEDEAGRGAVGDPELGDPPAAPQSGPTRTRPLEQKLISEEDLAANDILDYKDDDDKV
Chain of HSD17B10 (Q99714 other isoform, or with tags, fused parts or gaps): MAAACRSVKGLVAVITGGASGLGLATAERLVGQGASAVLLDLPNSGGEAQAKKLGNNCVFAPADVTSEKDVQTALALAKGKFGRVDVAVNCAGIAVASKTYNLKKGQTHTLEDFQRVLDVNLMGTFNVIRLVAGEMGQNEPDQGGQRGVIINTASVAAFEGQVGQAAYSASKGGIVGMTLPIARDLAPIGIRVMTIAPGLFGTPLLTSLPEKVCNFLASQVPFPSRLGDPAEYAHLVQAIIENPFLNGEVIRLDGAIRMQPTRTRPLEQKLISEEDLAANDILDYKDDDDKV
Chain of HSD17B4 (P51659 other isoform, or with tags, fused parts or gaps): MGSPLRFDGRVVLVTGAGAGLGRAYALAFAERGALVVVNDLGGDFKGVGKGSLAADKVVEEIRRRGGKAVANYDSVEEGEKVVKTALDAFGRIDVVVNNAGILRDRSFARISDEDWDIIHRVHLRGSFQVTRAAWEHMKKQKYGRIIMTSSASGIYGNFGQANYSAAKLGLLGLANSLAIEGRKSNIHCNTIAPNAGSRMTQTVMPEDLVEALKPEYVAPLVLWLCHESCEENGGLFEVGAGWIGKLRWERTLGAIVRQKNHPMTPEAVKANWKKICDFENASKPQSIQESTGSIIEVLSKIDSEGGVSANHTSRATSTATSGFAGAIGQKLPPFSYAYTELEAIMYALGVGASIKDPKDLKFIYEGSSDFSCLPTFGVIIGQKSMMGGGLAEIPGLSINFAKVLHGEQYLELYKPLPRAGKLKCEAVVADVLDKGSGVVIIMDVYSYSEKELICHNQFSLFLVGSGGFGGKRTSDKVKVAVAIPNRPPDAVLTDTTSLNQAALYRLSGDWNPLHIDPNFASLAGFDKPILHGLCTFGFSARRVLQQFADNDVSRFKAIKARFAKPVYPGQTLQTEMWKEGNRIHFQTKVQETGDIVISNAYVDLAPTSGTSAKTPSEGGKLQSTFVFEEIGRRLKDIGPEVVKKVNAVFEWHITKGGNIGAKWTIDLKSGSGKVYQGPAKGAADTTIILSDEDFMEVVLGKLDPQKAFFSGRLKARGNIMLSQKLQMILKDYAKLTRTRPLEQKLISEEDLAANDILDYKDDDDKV

Row | IC50 (HSD17B2) [µM] | IC50 (HSD17B13) [nM] | IC50 (HSD17B1) [µM] | IC50 (HSD17B10) [µM] | IC50 (HSD17B4) [µM] | Microsome Stability Human liver microsomes % Remaining @60 min [1] [%] | microsomal CLint at 1 μM [1] [µL/min/mg] | half-life at 1 μM [1] [min] | Microsome Stability Mouse liver microsomes % Remaining @60 min [2] [%] | microsomal CLint at 1 μM [2, 3] [µL/min/mg] | half-life at 1 μM [2, 4] [min] | microsomal CLint at 1 h, 1 µM [1] [µL/min/mg] | half-life at 1 h, 1 µM [1] [min] | microsomal CLint at 1 h, 1 µM [2, 3] [µL/min/mg] | half-life at 1 h, 1 µM [2, 4] [min] | Compound
1 | 9.15 | 180 | 4.65 | > 30 | > 100 | – | – | – | – | – | – | – | – | – | – | Cc1ccc2c(c1)Oc1ccccc1C2NC(=O)c1ccc(C(F)(F)F)[nH]c1=O (stereo not drawn) [Compound 55, N-(3-methyl-9H-xanthen-9-yl)-2-oxo-6-(trifluoromethyl)-1,2-dihydropyridine-3-carboxamide]
2 | 8.91 | 360 | 3.65 | > 30 | 48.7 | – | – | – | – | – | – | – | – | – | – | O=C(NC(c1ccccc1)c1ccc2c(c1)CCCC2)c1ccc(C(F)(F)F)[nH]c1=O (stereo not drawn) [Compound 80, N-(phenyl(5,6,7,8-tetrahydronaphthalen-2-yl)methyl)-2-oxo-6-(trifluoromethyl)-1,2-dihydropyridine-3-carboxamide]
3 | 10.7 | 600 | 15.6 | > 30 | 66.2 | – | – | – | – | – | – | – | – | – | – | O=C(NC(c1ccccc1)c1ccc(-c2cccnc2)cc1)c1ccc(C(F)(F)F)[nH]c1=O (stereo not drawn) [Compound 93, N-(phenyl(4-(pyridin-3-yl)phenyl)methyl)-2-oxo-6-(trifluoromethyl)-1,2-dihydropyridine-3-carboxamide]
4 | 18.8 | – | 11.3 | > 30 | 96.6 | – | – | – | – | – | – | – | – | – | – | O=C(NC(c1ccccc1)c1ccc2c(c1)COC2)c1ccc(C(F)(F)F)[nH]c1=O (stereo not drawn) [Compound 94, N-((1,3-dihydroisobenzofuran-5-yl)(phenyl)methyl)-2-oxo-6-(trifluoromethyl)-1,2-dihydropyridine-3-carboxamide]
5 | 11 | 450 | 11.2 | > 30 | > 100 | – | – | – | – | – | – | – | – | – | – | Cc1ccc(C(NC(=O)c2cc(C)c(C(F)(F)F)[nH]c2=O)c2ccc(C)cc2)cc1 [Compound 115, N-(di-p-tolylmethyl)-5-methyl-2-oxo-6-(trifluoromethyl)-1,2-dihydropyridine-3-carboxamide]
6 | 16.1 | 20 | 2.07 | > 30 | > 100 | 72.40 | – | – | 97.40 | < 9.6 | > 145 | 17.8 | 77.9 | – | – | Cc1ccc2c(c1)Oc1cc(Cl)ccc1C2NC(=O)c1ccc(C(F)(F)F)[nH]c1=O (stereo not drawn) [Compound 138, N-(3-chloro-6-methyl-9H-xanthen-9-yl)-2-oxo-6-(trifluoromethyl)-1,2-dihydropyridine-3-carboxamide]
7 | 10.7 | 200 | 3.53 | > 30 | 54.2 | – | – | – | – | – | – | – | – | – | – | CCc1ccc2c(c1)Oc1ccccc1C2NC(=O)c1ccc(C(F)(F)F)[nH]c1=O (stereo not drawn) [Compound 140, N-(3-ethyl-9H-xanthen-9-yl)-2-oxo-6-(trifluoromethyl)-1,2-dihydropyridine-3-carboxamide]
8 | 7.3 | 360 | 3.62 | > 30 | 58.2 | – | – | – | – | – | – | – | – | – | – | O=C(NC1c2ccccc2Oc2cc(CC(F)(F)F)ccc21)c1ccc(C(F)(F)F)[nH]c1=O (stereo not drawn) [Compound 141, 2-oxo-N-(3-(2,2,2-trifluoroethyl)-9H-xanthen-9-yl)-6-(trifluoromethyl)-1,2-dihydropyridine-3-carboxamide]

The next lines start with the compound.

Row | Compound | IC50 (HSD17B2) [µM] | IC50 (HSD17B13) [nM] | IC50 (HSD17B1) [µM] | IC50 (HSD17B10) [µM] | IC50 (HSD17B4) [µM] | Microsome Stability Human liver microsomes % Remaining @60 min [1] [%] | microsomal CLint at 1 μM [1] [µL/min/mg] | half-life at 1 μM [1] [min] | Microsome Stability Mouse liver microsomes % Remaining @60 min [2] [%] | microsomal CLint at 1 μM [2, 3] [µL/min/mg] | half-life at 1 μM [2, 4] [min] | microsomal CLint at 1 h, 1 µM [1] [µL/min/mg] | half-life at 1 h, 1 µM [1] [min] | microsomal CLint at 1 h, 1 µM [2, 3] [µL/min/mg] | half-life at 1 h, 1 µM [2, 4] [min]
9 | O=C(NC1c2ccccc2Oc2cc(Cl)ccc21)c1ccc(C(F)(F)F)[nH]c1=O (stereo not drawn) [Compound 15A, N-(3-chloro-9H-xanthen-9-yl)-2-oxo-6-(trifluoromethyl)-1,2-dihydropyridine-3-carboxamide] | 6.33 | 160 | 3.9 | > 30 | > 100 | – | – | – | – | – | – | – | – | – | –
10 | O=C(NC1c2ccc(Cl)cc2Oc2cc(Cl)ccc21)c1ccc(C(F)(F)F)[nH]c1=O [Compound 50, N-(3,6-dichloro-9H-xanthen-9-yl)-2-oxo-6-(trifluoromethyl)-1,2-dihydropyridine-3-carboxamide] | 5.16 | 120 | 4.22 | > 30 | > 100 | 101.00 | < 9.6 | > 145 | 97.70 | < 9.6 | > 145 | – | – | – | –
11 | O=C(NC1c2ccc(Cl)cc2Oc2cccc(Cl)c21)c1ccc(C(F)(F)F)[nH]c1=O (stereo not drawn) [Compound 51, N-(1,6-dichloro-9H-xanthen-9-yl)-2-oxo-6-(trifluoromethyl)-1,2-dihydropyridine-3-carboxamide] | 8.71 | 230 | 4.55 | > 30 | > 100 | 44.00 | – | – | 73.50 | – | – | 23 | 60.3 | 10.4 | 133
12 | Cc1ccc2c(c1)Oc1cc(C)ccc1C2NC(=O)c1ccc(C(F)(F)F)[nH]c1=O [Compound 52, N-(3,6-dimethyl-9H-xanthen-9-yl)-2-oxo-6-(trifluoromethyl)-1,2-dihydropyridine-3-carboxamide] | 8.69 | 80 | 5.84 | > 30 | > 100 | 110.00 | < 9.6 | > 145 | 125.00 | < 9.6 | > 145 | – | – | – | –
13 | Cc1ccc2c(c1)Oc1cccc(C)c1C2NC(=O)c1ccc(C(F)(F)F)[nH]c1=O (stereo not drawn) [Compound 53, N-(1,6-dimethyl-9H-xanthen-9-yl)-2-oxo-6-(trifluoromethyl)-1,2-dihydropyridine-3-carboxamide] | 10.7 | 310 | 3.69 | > 30 | 47.1 | – | – | – | – | – | – | – | – | – | –
14 | Cc1ccc2c(c1)Oc1ccccc1C2NC(=O)c1c(C)cc(C(F)(F)F)[nH]c1=O (stereo not drawn) [Compound 198, 4-methyl-N-(3-methyl-9H-xanthen-9-yl)-2-oxo-6-(trifluoromethyl)-1,2-dihydropyridine-3-carboxamide] | > 100 | 400 | > 30 | > 30 | > 100 | – | – | – | – | – | – | – | – | – | –
